Source: US11155571B2, “Salt of pyranose-substituted heterocyclic compound, preparation method therefor and use thereof” (Yabao Pharmaceutical Group Co., Ltd., priority 2018, dated 2021)

Assay: Solubility in water
Format: physicochemical

Compound: Cc1cccc2c1c(Cc1ccc(OCCCN3CCCC4(CCN(C(=O)CNC(=O)NCC(C)C)CC4)C3)cc1)cn2C1O[C@H](CO)[C@@H](O)[C@H](O)[C@H]1O (stereo partly shown) [compound represented by formula (II)]
- solubility: < 2300 µg/mL
